Laboratory results: PubChem BioAssay (NCI)
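Growth conditions: 96-well plates. Treatment: test compound, 48 hours, 5 concentrations. Analysis: linear interpolation between bracketing concentrations; unreached endpoints set to highest concentration. TGI denotes the concentration required for complete inhibition of growth.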

Experiments:
Assay in all cases: NCI-60 cell line screen, 48 h
786-0 renal = tested on: 786-0 renal
A498 renal = tested on: A498 renal
A549 NSCLC = tested on: A549 NSCLC
ACHN renal = tested on: ACHN renal
BT-549 breast = tested on: BT-549 breast
CAKI-1 renal = tested on: CAKI-1 renal
CCRF-CEM leukemia = tested on: CCRF-CEM leukemia
COLO 205 colon = tested on: COLO 205 colon
DU-145 prostate = tested on: DU-145 prostate
EKVX NSCLC = tested on: EKVX NSCLC
HCC-2998 colon = tested on: HCC-2998 colon
HCT-116 colon = tested on: HCT-116 colon
HCT-15 colon = tested on: HCT-15 colon
HL-60(TB) leukemia = tested on: HL-60(TB) leukemia
HOP-62 NSCLC = tested on: HOP-62 NSCLC
HOP-92 NSCLC = tested on: HOP-92 NSCLC
HS 578T breast = tested on: HS 578T breast
HT29 colon = tested on: HT29 colon
IGROV1 ovarian = tested on: IGROV1 ovarian
K-562 leukemia = tested on: K-562 leukemia
KM12 colon = tested on: KM12 colon
LOX IMVI melanoma = tested on: LOX IMVI melanoma
M14 melanoma = tested on: M14 melanoma
MALME-3M melanoma = tested on: MALME-3M melanoma
MCF7 breast = tested on: MCF7 breast
MDA-MB-231 breast = tested on: MDA-MB-231 breast
MDA-MB-435 = tested on: MDA-MB-435
MDA-N = tested on: MDA-N
MOLT-4 leukemia = tested on: MOLT-4 leukemia
NCI-H226 lung = tested on: NCI-H226 lung
NCI-H23 lung = tested on: NCI-H23 lung
NCI-H460 lung = tested on: NCI-H460 lung
NCI-H522 lung = tested on: NCI-H522 lung
NCI/ADR-RES ovarian = tested on: NCI/ADR-RES ovarian
OVCAR-3 ovarian = tested on: OVCAR-3 ovarian
OVCAR-4 ovarian = tested on: OVCAR-4 ovarian
OVCAR-5 ovarian = tested on: OVCAR-5 ovarian
OVCAR-8 ovarian = tested on: OVCAR-8 ovarian
PC-3 prostate = tested on: PC-3 prostate
RPMI-8226 leukemia = tested on: RPMI-8226 leukemia
RXF 393 renal = tested on: RXF 393 renal
SF-268 CNS = tested on: SF-268 CNS
SF-295 CNS = tested on: SF-295 CNS
SF-539 CNS = tested on: SF-539 CNS
SK-MEL-2 melanoma = tested on: SK-MEL-2 melanoma
SK-MEL-28 melanoma = tested on: SK-MEL-28 melanoma
SK-MEL-5 melanoma = tested on: SK-MEL-5 melanoma
SK-OV-3 ovarian = tested on: SK-OV-3 ovarian
SN12C renal = tested on: SN12C renal
SNB-19 CNS = tested on: SNB-19 CNS
SNB-75 CNS = tested on: SNB-75 CNS
SR leukemia = tested on: SR leukemia
SW-620 colon = tested on: SW-620 colon
T-47D breast = tested on: T-47D breast
TK-10 renal = tested on: TK-10 renal
U251 CNS = tested on: U251 CNS
UACC-257 melanoma = tested on: UACC-257 melanoma
UACC-62 melanoma = tested on: UACC-62 melanoma
UO-31 renal = tested on: UO-31 renal
DLD-1 colon = tested on: DLD-1 colon
DMS 273 small cell lung = tested on: DMS 273 small cell lung
HOP-18 NSCLC = tested on: HOP-18 NSCLC
KM20L2 colon = tested on: KM20L2 colon
LXFL 529 NSCLC = tested on: LXFL 529 NSCLC
M19-MEL melanoma = tested on: M19-MEL melanoma
SNB-78 CNS = tested on: SNB-78 CNS

In the case of `O=C(c1c(F)c(F)c(F)c(F)c1F)n1c(=O)[nH]c2ccccc21`, the TGI (786-0 renal) is reported as 47.4 µM, the TGI (A498 renal) is reported as 33.6 µM and the TGI (A549 NSCLC) is reported as 32.5 µM. It also gave a TGI (ACHN renal) of 29.7 µM, a TGI (BT-549 breast) of 37.5 µM and a TGI (CAKI-1 renal) of 11.3 µM. The TGI (CCRF-CEM leukemia) was 18.8 µM, the TGI (COLO 205 colon) was 25.7 µM and the TGI (DU-145 prostate) was 29.6 µM. It also gave a TGI (EKVX NSCLC) of 29.3 µM, a TGI (HCC-2998 colon) of 11.6 µM and a TGI (HCT-116 colon) of 12.2 µM. The TGI (HCT-15 colon) was 15.6 µM, the TGI (HL-60(TB) leukemia) was 5.05 µM and the TGI (HOP-62 NSCLC) was 31.6 µM. The TGI (HOP-92 NSCLC) was 11.4 µM, the TGI (HS 578T breast) was 38.8 µM and the TGI (HT29 colon) was 18 µM. For the same compound, the TGI (IGROV1 ovarian) was 24.2 µM, the TGI (K-562 leukemia) was 14.9 µM and the TGI (KM12 colon) was 5.15 µM. The TGI (LOX IMVI melanoma) was 14.9 µM, the TGI (M14 melanoma) was 22.1 µM and the TGI (MALME-3M melanoma) was 28.5 µM. For the same compound, the TGI (MCF7 breast) was 16.8 µM, the TGI (MDA-MB-231 breast) was 26.8 µM and the TGI (MDA-MB-435) was 21.9 µM. The TGI (MDA-N) was 20.5 µM, the TGI (MOLT-4 leukemia) was 18.7 µM and the TGI (NCI-H226 lung) was 33.4 µM. It also gave a TGI (NCI-H23 lung) of 11.4 µM, a TGI (NCI-H460 lung) of 27.2 µM and a TGI (NCI-H522 lung) of 13.6 µM. For the same compound, the TGI (NCI/ADR-RES ovarian) was 58.1 µM, the TGI (OVCAR-3 ovarian) was 24 µM and the TGI (OVCAR-4 ovarian) was 31.8 µM. It also gave a TGI (OVCAR-5 ovarian) of 29.7 µM, a TGI (OVCAR-8 ovarian) of 27 µM and a TGI (PC-3 prostate) of 21.8 µM. The TGI (RPMI-8226 leukemia) was 25.1 µM, the TGI (RXF 393 renal) was 22 µM and the TGI (SF-268 CNS) was 34.1 µM. It also gave a TGI (SF-295 CNS) of 30.6 µM, a TGI (SF-539 CNS) of 26.7 µM and a TGI (SK-MEL-2 melanoma) of 17.5 µM. The TGI (SK-MEL-28 melanoma) was 28.3 µM, the TGI (SK-MEL-5 melanoma) was 28.7 µM and the TGI (SK-OV-3 ovarian) was 29.7 µM. It also gave a TGI (SN12C renal) of 28.3 µM, a TGI (SNB-19 CNS) of 28.2 µM and a TGI (SNB-75 CNS) of 30.5 µM. For the same compound, the TGI (SR leukemia) was 8.8 µM, the TGI (SW-620 colon) was 16.1 µM and the TGI (T-47D breast) was 17.6 µM. The TGI (TK-10 renal) was 18.5 µM, the TGI (U251 CNS) was 25.5 µM and the TGI (UACC-257 melanoma) was 19.7 µM. For the same compound, the TGI (UACC-62 melanoma) was 25.5 µM and the TGI (UO-31 renal) was 25.2 µM.
Work on `COc1ccc(C[C@H]2NC[C@H](OC(C)=O)[C@H]2OC(C)=O)cc1` yielded a TGI (786-0 renal) of 1.05 µM, a TGI (A498 renal) of 4.27 µM and a TGI (A549 NSCLC) of 1.08 µM. For the same compound, the TGI (ACHN renal) was 0.853 µM, the TGI (BT-549 breast) was 0.564 µM and the TGI (CAKI-1 renal) was 0.544 µM. For the same compound, the TGI (CCRF-CEM leukemia) was 1.18 µM, the TGI (COLO 205 colon) was 0.311 µM and the TGI (DU-145 prostate) was 0.903 µM. For the same compound, the TGI (EKVX NSCLC) was 0.606 µM, the TGI (HCC-2998 colon) was 0.357 µM and the TGI (HCT-116 colon) was 0.685 µM. The TGI (HCT-15 colon) was 0.975 µM, the TGI (HL-60(TB) leukemia) was 0.326 µM and the TGI (HOP-62 NSCLC) was 2.75 µM. It also gave a TGI (HOP-92 NSCLC) of 0.356 µM, a TGI (HS 578T breast) of 0.465 µM and a TGI (HT29 colon) of 1.04 µM. It also gave a TGI (IGROV1 ovarian) of 0.674 µM, a TGI (K-562 leukemia) of 51.6 µM and a TGI (KM12 colon) of 1.46 µM. It also gave a TGI (LOX IMVI melanoma) of 0.331 µM, a TGI (M14 melanoma) of 0.328 µM and a TGI (MALME-3M melanoma) of 0.561 µM. The TGI (MCF7 breast) was > 100 µM, the TGI (MDA-MB-231 breast) was 1.49 µM and the TGI (MDA-MB-435) was 1.23 µM. It also gave a TGI (MDA-N) of 0.732 µM, a TGI (MOLT-4 leukemia) of 1.98 µM and a TGI (NCI-H226 lung) of 1.08 µM. The TGI (NCI-H23 lung) was 0.94 µM, the TGI (NCI-H460 lung) was 1.44 µM and the TGI (NCI-H522 lung) was 0.289 µM. For the same compound, the TGI (NCI/ADR-RES ovarian) was 0.788 µM, the TGI (OVCAR-3 ovarian) was 0.85 µM and the TGI (OVCAR-4 ovarian) was 0.706 µM. It also gave a TGI (OVCAR-5 ovarian) of 0.679 µM, a TGI (OVCAR-8 ovarian) of 2 µM and a TGI (PC-3 prostate) of 1.08 µM. It also gave a TGI (RPMI-8226 leukemia) of 1.95 µM, a TGI (RXF 393 renal) of 0.651 µM and a TGI (SF-268 CNS) of 0.308 µM. For the same compound, the TGI (SF-295 CNS) was 4.26 µM, the TGI (SF-539 CNS) was 10.4 µM and the TGI (SK-MEL-2 melanoma) was 0.627 µM. For the same compound, the TGI (SK-MEL-28 melanoma) was 0.562 µM, the TGI (SK-MEL-5 melanoma) was 0.345 µM and the TGI (SK-OV-3 ovarian) was 2.56 µM. The TGI (SN12C renal) was 0.752 µM, the TGI (SNB-19 CNS) was 0.446 µM and the TGI (SNB-75 CNS) was 0.362 µM. The TGI (SR leukemia) was 3.45 µM, the TGI (SW-620 colon) was 1.14 µM and the TGI (T-47D breast) was 0.7 µM. For the same compound, the TGI (TK-10 renal) was > 35.3 µM, the TGI (U251 CNS) was 1.6 µM and the TGI (UACC-257 melanoma) was 2.98 µM. For the same compound, the TGI (UACC-62 melanoma) was 4.23 µM and the TGI (UO-31 renal) was 0.371 µM.
For `CN1NC2=NCCN=C3NN(C)C(=NCCN=C1S2)S3`, the TGI (786-0 renal) was > 100 µM, the TGI (A498 renal) was > 100 µM and the TGI (A549 NSCLC) was > 100 µM. The TGI (ACHN renal) was > 100 µM, the TGI (CCRF-CEM leukemia) was > 100 µM and the TGI (COLO 205 colon) was > 100 µM. The TGI (DLD-1 colon) was > 100 µM, the TGI (DMS 273 small cell lung) was > 100 µM and the TGI (EKVX NSCLC) was > 100 µM. For the same compound, the TGI (HCT-116 colon) was > 100 µM, the TGI (HCT-15 colon) was > 100 µM and the TGI (HL-60(TB) leukemia) was > 100 µM. For the same compound, the TGI (HOP-18 NSCLC) was > 100 µM, the TGI (HOP-62 NSCLC) was > 100 µM and the TGI (HOP-92 NSCLC) was > 100 µM. For the same compound, the TGI (HT29 colon) was > 100 µM, the TGI (IGROV1 ovarian) was > 100 µM and the TGI (K-562 leukemia) was > 100 µM. The TGI (KM12 colon) was > 100 µM, the TGI (KM20L2 colon) was > 100 µM and the TGI (LOX IMVI melanoma) was > 100 µM. For the same compound, the TGI (LXFL 529 NSCLC) was > 100 µM, the TGI (M14 melanoma) was > 100 µM and the TGI (M19-MEL melanoma) was > 100 µM. For the same compound, the TGI (MOLT-4 leukemia) was > 100 µM, the TGI (NCI-H226 lung) was > 100 µM and the TGI (NCI-H23 lung) was > 100 µM. For the same compound, the TGI (NCI-H460 lung) was > 100 µM, the TGI (NCI-H522 lung) was > 100 µM and the TGI (OVCAR-4 ovarian) was > 100 µM. The TGI (OVCAR-5 ovarian) was > 100 µM, the TGI (OVCAR-8 ovarian) was > 100 µM and the TGI (RPMI-8226 leukemia) was > 100 µM. The TGI (RXF 393 renal) was > 100 µM, the TGI (SF-268 CNS) was > 100 µM and the TGI (SF-295 CNS) was > 100 µM. For the same compound, the TGI (SF-539 CNS) was > 100 µM, the TGI (SK-MEL-28 melanoma) was > 100 µM and the TGI (SK-MEL-5 melanoma) was > 100 µM. The TGI (SN12C renal) was > 100 µM, the TGI (SNB-19 CNS) was > 100 µM and the TGI (SNB-75 CNS) was > 100 µM. For the same compound, the TGI (SNB-78 CNS) was > 100 µM, the TGI (SR leukemia) was > 100 µM and the TGI (SW-620 colon) was > 100 µM. For the same compound, the TGI (U251 CNS) was > 100 µM, the TGI (UACC-257 melanoma) was > 100 µM and the TGI (UACC-62 melanoma) was > 100 µM.
